Patent US9718819B2 (Merck Sharp & Dohme Corp., priority 2012, dated 2017)

Biological target: HIV-1 RT wild-type enzyme (Human immunodeficiency virus type 1 group M subtype B (isolate HXB2) (HIV-1), UniProt P04585)
Assay: HIV-1 reverse transcriptase inhibitory activity (RT polymerase assay)
Assay type: biochemical
Details: HIV-1 RT wild-type enzyme 83 pM; RNA-dependent DNA polymerase activity; read-out: IC50
Method in brief: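 Enzyme and compound were preincubated 30 min at room temperature, then RNA/DNA hybrid (16.6 nM final; HCV-derived RNA, biotinylated primer) plus 2 μM dNTPs and 66.6 nM Ru-dUTP added, 90 min at 37 °C. Avidin capture and ECL counting; percent inhibition relative to DMSO (0%) and 1 μM efavirenz (100%), four-parameter IC50 fit.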

Row | SMILES | IC50 [nM]
1 | Cc1cccc(-c2cc(Cn3cnc(C(F)(F)F)c(Oc4cc(Cl)cc(C#N)c4)c3=O)n[nH]c2=O)c1F [Example 38, 3-chloro-5-((1-((5-(2-fluoro-3-methylphenyl)-6-oxo-1,6-dihydropyridazin-3-yl)methyl)-6-oxo-4-(trifluoromethyl)-1,6-dihydropyrimidin-5-yl)oxy)benzonitrile] | 110
2 | N#Cc1cc(Cl)cc(Oc2c(C(F)(F)F)ncn(Cc3cc(-c4cncc(C#N)c4)c(=O)[nH]n3)c2=O)c1 [Example 84, 5-(6-((5-(3-chloro-5-cyanophenoxy)-6-oxo-4-(trifluoromethyl)pyrimidin-1(6H)-yl)methyl)-3-oxo-2,3-dihydropyridazin-4-yl)nicotinonitrile] | 27
3 | N#Cc1cc(Cl)cc(Oc2c(C(F)(F)F)ncn(Cc3cnc(-c4cccc(F)c4)[nH]c3=O)c2=O)c1 [Example 150, 3-chloro-5-((1-((2-(3-fluorophenyl)-6-oxo-1,6-dihydropyrimidin-5-yl)methyl)-6-oxo-4-(trifluoromethyl)-1,6-dihydropyrimidin-5-yl)oxy)benzonitrile] | 9
4 | N#Cc1cc(Cl)cc(Oc2c(C(F)(F)F)ncn(Cc3cc(-c4ccncc4)c(=O)[nH]n3)c2=O)c1 [Example 81, 3-chloro-5-((6-oxo-1-((6-oxo-5-(pyridin-4-yl)-1,6-dihydropyridazin-3-yl)methyl)-4-(trifluoromethyl)-1,6-dihydropyrimidin-5-yl)oxy)benzonitrile] | 9
5 | N#Cc1cc(Cl)cc(Oc2c(C(F)(F)F)ncn(Cc3cc(C4CC4)c(=O)[nH]n3)c2=O)c1 [Example 66, 3-chloro-5-((1-((5-cyclopropyl-6-oxo-1,6-dihydropyridazin-3-yl)methyl)-6-oxo-4-(trifluoromethyl)-1,6-dihydropyrimidin-5-yl)oxy)benzonitrile] | 7
6 | N#Cc1cc(Cl)cc(Oc2c(C(F)(F)F)ncn(Cc3cc(-c4cccc(F)c4)c(=O)[nH]n3)c2=O)c1 [Example 26, 3-chloro-5-((1-((5(3-fluorophenyl)-6-oxo-1,6-dihydropyridazin-3-yl)methyl)-6-oxo-4-(trifluoromethyl)-1,6-dihydropyrimidin-5-yl)oxy)benzonitrile] | 5
7 | N#Cc1cc(Cl)cc(Oc2c(C(F)(F)F)ncn(Cc3cc(C4CC(F)(F)C4)c(=O)[nH]n3)c2=O)c1 [Example 9, 3-chloro-5-((1-((5-(3,3-difluorocyclobutyl)-6-oxo-1,6-dihydropyridazin-3-yl)methyl)-6-oxo-4-(trifluoromethyl)-1,6-dihydropyrimidin-5-yl)oxy)benzonitrile] | 109
8 | N#Cc1cc(Cl)cc(Oc2c(C(F)(F)F)ncn(Cc3cc(-c4ccc(Cl)cn4)c(=O)[nH]n3)c2=O)c1 [Example 99, 3-chloro-5-((1-((5-(5-chloropyridin-2-yl)-6-oxo-1,6-dihydropyridazin-3-yl)methyl)-6-oxo-4-(trifluoromethyl)-1,6-dihydropyrimidin-5-yl)oxy)benzonitrile] | 7
9 | N#Cc1cc(Cl)cc(Oc2c(C(F)(F)F)ncn(Cc3cnc(C4CC4)[nH]c3=O)c2=O)c1 [Example 145, 3-chloro-5-((1-((2-cyclopropyl-6-oxo-1,6-dihydropyrimidin-5-yl)methyl)-6-oxo-4-(trifluoromethyl)-1,6-dihydropyrimidin-5-yl)oxy)benzonitrile] | 9
10 | N#Cc1cc(Cl)cc(Oc2c(C(F)(F)F)ncn(Cc3cc(-c4ccccc4F)c(=O)[nH]n3)c2=O)c1 [Example 25, 3-chloro-5-((1-((5-(2-fluorophenyl)-6-oxo-1,6-dihydropyridazin-3-yl)methyl)-6-oxo-4-(trifluoromethyl)-1,6-dihydropyrimidin-5-yl)oxy)benzonitrile] | 9
11 | [2H]C([2H])(c1ccc(=O)[nH]n1)n1cnc(C(F)(F)F)c(Oc2cc(Cl)cc(C#N)c2)c1=O [Example 8] | 9
